Results: patent US20100016371A1, “Indole Compounds” (Glaxo Group Limited, priority 2006, published 2010)
Each block holds one molecule with its values, some of them ahead of it.

Assays:
human EP1 receptor = biological target: T1, human EP1 receptor (Homo sapiens, UniProt P34995); assay: human EP1 calcium mobilisation assay (FLIPR, CHO-K1 cells); type: cell-based; details: antagonism of PGE2-induced calcium mobilisation, CHO-K1 cells expressing EP1; averages of a number of experiments; read-out: functional pKi (converted)
T1 construct: expressed in transfected cells; host or cells: CHO-K1 cells, pCIN vector
T1 sequence (P34995 1-402): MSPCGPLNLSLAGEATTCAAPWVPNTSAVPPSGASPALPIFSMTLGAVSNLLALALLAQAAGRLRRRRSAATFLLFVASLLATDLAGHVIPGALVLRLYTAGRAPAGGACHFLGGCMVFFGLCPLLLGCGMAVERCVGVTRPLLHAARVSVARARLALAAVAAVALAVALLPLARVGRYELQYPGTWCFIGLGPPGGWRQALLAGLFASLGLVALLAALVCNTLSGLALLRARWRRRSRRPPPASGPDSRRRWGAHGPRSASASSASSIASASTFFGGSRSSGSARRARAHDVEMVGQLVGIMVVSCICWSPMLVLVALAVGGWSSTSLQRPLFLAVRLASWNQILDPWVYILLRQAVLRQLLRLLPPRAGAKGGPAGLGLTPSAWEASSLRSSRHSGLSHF
Protocol: (§1) Biological Activity at EP1 and EP3 Receptors
(§2) Briefly, the antagonist properties of compounds are assessed by their ability to inhibit the mobilisation of intracellular calcium ([Ca^2+]i) in response to activation of EP1 or EP3 receptors by the natural agonist hormone prostaglandin E2 (PGE2). Increasing concentrations of antagonist reduce the amount of calcium that a given concentration of PGE2 can mobilise. The net effect is to displace the PGE2 concentration-effect curve to higher concentrations of PGE2. The amount of calcium produced is assessed using a calcium-sensitive fluorescent dye such as Fluo-4, AM and a suitable instrument such as a Fluorimetric Imaging Plate Reader (FLIPR). Increasing amounts of [Ca^2+]i produced by receptor activation increase the amount of fluorescence produced by the dye and give rise to an increasing signal. The signal may be detected using the FLIPR instrument and the data generated may be analysed with suitable curve-fitting software.
The human EP1 or EP3 calcium mobilisation assay (hereafter referred to as ‘the calcium assay’) utilises Chinese hamster ovary-K1 (CHO-K1) cells into which a stable (pCIN; BioTechniques 20(1996): 102-110) vector containing either EP1 or EP3 cDNA has previously been transfected. Cells are cultured in suitable flasks containing culture medium such as DMEM:F-12 supplemented with 10% v/v foetal calf serum, 2 mM L-glutamine, 0.25 mg/ml geneticin, 100 μM flurbiprofen and 10 μg/ml puromycin.
For assay, cells are harvested using a proprietary reagent that dislodges cells such as Versene. Cells are re-suspended in a suitable quantity of fresh culture media for introduction into a 384-well plate. Following incubation for 24 hours at 37° C. the culture media is replaced with a medium containing Fluo-4 and the detergent pluronic acid, and a further incubation takes place. Concentrations of compounds are then added to the plate in order to construct concentration-effect curves. This may be performed on the FLIPR in order to assess the agonist properties of the compounds. Concentrations of PGE2 are then added to the plate in order to assess the antagonist properties of the compounds.
The data so generated may be analysed by means of a computerised curve-fitting routine. The concentration of compound that elicits a half-maximal inhibition of the calcium mobilisation induced by PGE2 (pIC50) may then be estimated.

[1] = biological target: T2, human prostanoid EP1 receptor (Homo sapiens, UniProt P34995); assay: Binding assay for the human prostanoid EP1 receptor (competition with [3H]-PGE2); details: [3H]-PGE2 competition, CHO-K1 cell membranes; averages of a number of experiments
T2 construct: expressed in transfected cells; host or cells: CHO-K1 cells, membrane fraction
T2 sequence (P34995 1-402): T1 sequence (P34995 1-402)
Protocol: Binding Assay for the Human Prostanoid EP1 Receptor
Competition assay using [^3H]-PGE2
Compound potencies are determined using a radioligand binding assay. In this assay compound potencies are determined from their ability to compete with tritiated prostaglandin E2 ([^3H]-PGE2) for binding to the human EP1 receptor.
This assay utilises Chinese hamster ovary-K1 (CHO-K1) cells into which a stable vector containing the EP1 cDNA has previously been transfected. Cells are cultured in suitable flasks containing culture medium such as DMEM:F-12 supplemented with 10% v/v foetal calf serum, 2 mM L-glutamine, 0.25 mg/ml geneticin, […] puromycin and 10 μM indomethacin.
Cells are detached from the culture flasks by incubation in calcium and magnesium free phosphate buffered saline containing 1 mM disodium ethylenediaminetetraacetic acid (Na2EDTA) and 10 μM indomethacin for 5 min. The cells are isolated by centrifugation at 250×g for 5 mins and suspended in an ice cold buffer such as 50 mM Tris, 1 mM Na2EDTA, 140 mM NaCl, 10 μM indomethacin (pH 7.4). The cells are homogenised using a Polytron tissue disrupter (2×10s burst at full setting), centrifuged at 48,000×g for 20 mins and the pellet containing the membrane fraction is washed (optional) three times by suspension and centrifugation at 48,000×g for 20 mins. The final membrane pellet is suspended in an assay buffer such as 10 mM 2-[N-morpholino]ethanesulphonic acid, 1 mM Na2EDTA,10 mM MgCl2 (pH 6). Aliquots are frozen at −80° C. until required.
For the binding assay the cell membranes, competing compounds and [^3H]-PGE2 (3 nM final assay concentrations are incubated in a final volume of 100 μl for 30 min at 30° C. All reagents are prepared in assay buffer. Reactions are terminated by rapid vacuum filtration over GF/B filters using a Brandell cell harvester. The filters are washed with ice cold assay buffer, dried and the radioactivity retained on the filters is measured by liquid scintillation counting in Packard TopCount scintillation counter.
The data are analysed using non linear curve fitting techniques to determine the concentration of compound producing 50% inhibition of specific binding (IC50).

human EP3 receptor = biological target: T3, human EP3 receptor (Homo sapiens, UniProt P43115); assay: human EP3 calcium mobilisation assay (FLIPR, CHO-K1 cells); type: cell-based; details: antagonism of PGE2-induced calcium mobilisation, CHO-K1 cells expressing EP3; averages of a number of experiments; read-out: functional pKi (converted)
T3 construct: expressed in transfected cells; host or cells: CHO-K1 cells, pCIN vector
T3 sequence (P43115 1-390): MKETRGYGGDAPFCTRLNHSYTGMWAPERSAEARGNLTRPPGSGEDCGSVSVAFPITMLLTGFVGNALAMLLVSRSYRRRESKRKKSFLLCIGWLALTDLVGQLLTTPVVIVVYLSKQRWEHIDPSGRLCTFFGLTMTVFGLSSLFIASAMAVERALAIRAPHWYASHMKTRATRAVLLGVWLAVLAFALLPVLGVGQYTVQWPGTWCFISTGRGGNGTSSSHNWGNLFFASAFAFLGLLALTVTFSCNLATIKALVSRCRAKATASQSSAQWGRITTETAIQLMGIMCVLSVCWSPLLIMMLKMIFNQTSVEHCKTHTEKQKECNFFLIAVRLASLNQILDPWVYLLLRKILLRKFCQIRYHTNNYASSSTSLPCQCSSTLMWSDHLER
Protocol: as §1
as §2, with “software. […]” for “software.”
For assay, cells are harvested using a proprietary reagent that dislodges cells such as Versene. Cells are re-suspended in a suitable quantity of fresh culture media for introduction into a 384-well plate. […]
The data so generated may be analysed by means of a computerised curve-fitting routine. […]

- Ki (human EP1 receptor): ≤ 0.1 µM
- IC50 [1]: ≤ 0.1 µM
Structure (SMILES): CC(C)Cc1nn(-c2nc(C(=O)O)cs2)c2cc(Cl)ccc12 [Example 11, 2-[6-Chloro-3-(2-methylpropyl)-1H-indazol-1-yl]-1,3-thiazole-4-carboxylic acid]

- Ki (human EP1 receptor): ≤ 0.1 µM
- IC50 [1]: ≤ 0.1 µM
Structure (SMILES): CC(C)Cc1cn(-c2ncc(C(=O)O)s2)c2cc(Cl)ccc12 [Example 21, 2-[6-Chloro-3-(2-methylpropyl)-1H-indol-1-yl]-1,3-thiazole-5-carboxylic acid]

- Ki (human EP1 receptor): ≤ 0.1 µM
- IC50 [1]: ≤ 0.1 µM
Structure (SMILES): CC(C)Cc1cn(-c2nc(C(=O)O)cs2)c2cc(F)ccc12 [Example 16, 2-[6-Fluoro-3-(2-methylpropyl)-1H-indol-1-yl]-1,3-thiazole-4-carboxylic acid]

- Ki (human EP1 receptor): ≤ 0.1 µM
- IC50 [1]: ≤ 0.1 µM
Structure (SMILES): CC(C)Cc1cn(-c2ccc(C(=O)O)o2)c2cc(Cl)ccc12 [Example 18, 5-[6-Chloro-3-(2-methylpropyl)-1H-indol-1-yl]-2-furancarboxylic acid]

- Ki (human EP1 receptor): ≤ 0.1 µM
- IC50 [1]: ≤ 0.1 µM
Structure (SMILES): CC(C)Cc1cn(-c2nc(C(=O)O)co2)c2cc(Cl)ccc12 [Example 5, 2-[6-Chloro-3-(2-methylpropyl)-1H-indol-1-yl]-1,3-oxazole-4-carboxylic acid]

- Ki (human EP1 receptor): ≤ 0.1 µM
- IC50 [1]: ≤ 0.1 µM
Structure (SMILES): CC(C)Cc1cn(-c2nc(C(=O)O)cs2)c2cc(Cl)ccc12 [Example 17, 2-[6-Chloro-3-(2-methylpropyl)-1H-indol-1-yl]-1,3-thiazole-4-carboxylic acid]

- Ki (human EP1 receptor): ≤ 0.1 µM
- IC50 [1]: ≤ 0.1 µM
Structure (SMILES): CC(C)(C)CCc1cn(-c2nc(C(=O)O)cs2)c2cc(Cl)ccc12 [Example 2, 2-[6-Chloro-3-(3,3-dimethylbutyl)-1H-indol-1-yl]-1,3-thiazole-4-carboxylic acid]

- Ki (human EP1 receptor): ≤ 0.1 µM
Structure (SMILES): CC(C)Cc1cn(-c2nc(C(=O)O)cs2)c2ccccc12 [Example 10, 2-[3-(2-Methylpropyl)-1H-indol-1-yl]-1,3-thiazole-4-carboxylic acid]

- Ki (human EP1 receptor): ≤ 0.1 µM
- IC50 [1]: ≤ 0.1 µM
Structure (SMILES): CCCc1cn(-c2nc(C(=O)O)cs2)c2cc(Cl)ccc12 [Example 1, 2-(6-Chloro-3-propyl-1H-indol-1-yl)-1,3-thiazole-4-carboxylic acid]

Continued, molecule first:

Structure (SMILES): CC(C)Cc1cn(-c2cccc(C(=O)O)n2)c2cc(Cl)ccc12 [Example 19, 6-[6-Chloro-3-(2-methylpropyl)-1H-indol-1-yl]-2-pyridinecarboxylic acid]
- Ki (human EP1 receptor): ≤ 0.1 µM
- IC50 [1]: ≤ 0.1 µM

Structure (SMILES): CC(C)Cc1cn(-c2nc(C(=O)O)cs2)c2cc(Br)ccc12 [Example 4, 2-[6-Bromo-3-(2-methylpropyl)-1H-indol-1-yl]-1,3-thiazole-4-carboxylic acid]
- Ki (human EP1 receptor): ≤ 0.1 µM
- IC50 [1]: ≤ 0.1 µM

Structure (SMILES): CC(C)c1cn(-c2nc(C(=O)O)cs2)c2cc(Cl)ccc12 [Example 3, 2-[6-Chloro-3-(1-methylethyl)-1H-indol-1-yl]-1,3-thiazole-4-carboxylic acid]
- Ki (human EP1 receptor): ≤ 0.1 µM
- IC50 [1]: ≤ 0.1 µM

Structure (SMILES): Cc1ccc2c(CC(C)C)cn(-c3nc(C(=O)O)cs3)c2c1 [Example 24]
- Ki (human EP1 receptor): ≤ 0.1 µM
- IC50 [1]: ≤ 0.1 µM

Structure (SMILES): CC(C)Cc1cn(-c2nc(C(=O)O)cs2)c2cc(C(F)(F)F)ccc12 [Example 13, 2-[3-(2-Methylpropyl)-6-(trifluoromethyl)-1H-indol-1-yl]-1,3-thiazole-4-carboxylic acid]
- Ki (human EP1 receptor): ≤ 0.1 µM
- IC50 [1]: ≤ 0.1 µM

Structure (SMILES): CC(C)Cc1cn(-c2nc(CC(=O)O)cs2)c2cc(Cl)ccc12 [Example 15, {2-[6-Chloro-3-(2-methylpropyl)-1H-indol-1-yl]-1,3-thiazol-4-yl}acetic acid]
- Ki (human EP1 receptor): ≤ 0.1 µM

Structure (SMILES): O=C(O)c1csc(-n2cc(Cc3ccccc3)c3ccc(Cl)cc32)n1 [Example 8, 2-[6-Chloro-3-(phenylmethyl)-1H-indol-1-yl]-1,3-thiazole-4-carboxylic acid]
- Ki (human EP1 receptor): ≤ 0.1 µM

Structure (SMILES): CC(C)(C)Cc1cn(-c2nc(C(=O)O)cs2)c2cc(Cl)ccc12 [Example 12, 2-[6-Chloro-3-(2,2-dimethylpropyl)-1H-indol-1-yl]-1,3-thiazole-4-carboxylic acid]
- Ki (human EP1 receptor): ≤ 0.1 µM
- IC50 [1]: ≤ 0.1 µM

Structure (SMILES): CC(C)C(=O)c1cn(-c2nc(C(=O)O)cs2)c2cc(Cl)ccc12 [Example 7, 2-[6-Chloro-3-(2-methylpropanoyl)-1H-indol-1-yl]-1,3-thiazole-4-carboxylic acid]
- Ki (human EP1 receptor): ≤ 0.1 µM
- Ki (human EP3 receptor): ≥ 2 µM

Structure (SMILES): CC(C)Cc1cn(Cc2nc(C(=O)O)cs2)c2cc(Cl)ccc12 [Example 6, 2-{[6-Chloro-3-(2-methylpropyl)-1H-indol-1-yl]methyl}-1,3-thiazole-4-carboxylic acid]
- Ki (human EP1 receptor): ≤ 0.1 µM
- IC50 [1]: ≤ 0.1 µM

Structure (SMILES): CC(C)Cc1cn(-c2ccc(C(=O)O)s2)c2cc(Cl)ccc12 [Example 22, 5-[6-Chloro-3-(2-methylpropyl)-1H-indol-1-yl]-2-thiophenecarboxylic acid]
- Ki (human EP1 receptor): ≤ 0.1 µM
- IC50 [1]: ≤ 0.1 µM

Structure (SMILES): CCc1cn(-c2nc(C(=O)O)cs2)c2cc(Cl)ccc12 [Example 20, 2-(6-Chloro-3-ethyl-1H-indol-1-yl)-1,3-thiazole-4-carboxylic acid]
- Ki (human EP1 receptor): ≤ 0.1 µM
- Ki (human EP3 receptor): ≥ 2 µM

Structure (SMILES): CC(C)Cc1cn(-c2nc(C(=O)NS(=O)(=O)c3ccccc3)cs2)c2cc(Cl)ccc12 [Example 23, 2-[6-Chloro-3-(2-methylpropyl)-1H-indol-1-yl]-N-(phenylsulfonyl)-1,3-thiazole-4-carboxamide]
- Ki (human EP1 receptor): ≤ 0.1 µM
- IC50 [1]: ≤ 0.1 µM
